Test results taken from patent publication US6197753A, “Pyranoside derivatives” (Boehringer Ingelheim KG, priority 1999, dated 2001).

Biological target: LTB4 -receptor (Homo sapiens, UniProt Q15722)
Test: receptor binding test
Method: The compounds according to the invention are potent LTB4 -antagonists.In particular the compound of Example 1 is obtained in vivo as a metabolite of an LTB4 -antagonistic compound and in the receptor binding test it has a Ki -value of 1.0 nM.
The activity ratios may be investigated pharmacologically and biochemically using tests such as those described in WO 93/16036, pp. 15 to 17 --the contents of which are referred to herein.

Chain of LTB4 -receptor (Q15722 whole entry): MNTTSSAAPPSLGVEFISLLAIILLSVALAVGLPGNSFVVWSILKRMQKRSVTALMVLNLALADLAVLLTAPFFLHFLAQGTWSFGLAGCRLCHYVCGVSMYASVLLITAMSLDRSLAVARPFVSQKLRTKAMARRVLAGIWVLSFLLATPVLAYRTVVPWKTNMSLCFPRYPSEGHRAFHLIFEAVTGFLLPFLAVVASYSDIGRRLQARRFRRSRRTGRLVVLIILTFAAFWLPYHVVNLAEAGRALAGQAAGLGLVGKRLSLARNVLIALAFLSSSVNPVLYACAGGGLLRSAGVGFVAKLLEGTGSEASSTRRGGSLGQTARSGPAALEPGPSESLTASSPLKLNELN

CC(C)(c1ccc(OCc2cccc(COc3ccc(C(=N)N)cc3)c2)cc1)c1ccc(O[C@@H]2O[C@H](C(=O)O)[C@@H](O)[C@H](O)[C@H]2O)cc1 [Example 1, 4-[[3-[[4-[1-(4-hydroxyphenyl)-1-methylethyl]phenoxy]methyl]phenyl]methoxy]-benzenecarboximidamide-O-gluctironide]
Ki: 1 nM
